# In PubChem BioAssay AID2060505 (Molecular Pharmacology Branch, DTP, NCI, 2025):
# System: 633275-114-R-J1-PDC complex spheroids, viability
# Assay: Anticancer human tumor 633275-114-R-J1-PDC patient-derived endometrial adenocarcinoma cell line growth inhibition [GQUAD]
# Conditions: for IC50: curve of first compound; for viability, T/C: stronger effect = lower value
# Outline: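 Tumor cells were grown as complex spheroids with HUVEC endothelial cells and mesenchymal stem cells as stroma. G-quadruplex stabilizers were combined with targeted agents over half-log dilutions from near the clinical Cmax, or from 10 microM.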
# [1] = second compound 0.0316 µM, first compound 0.0316 µM
# [2] = second compound 0.0316 µM, first compound 0.316 µM
# [3] = second compound 0.1 µM, first compound 0.0316 µM
# [4] = second compound 0.1 µM, first compound 0.316 µM
# [5] = second compound 0.316 µM, first compound 0.0316 µM
# [6] = second compound 0.316 µM, first compound 0.316 µM
# [7] = second compound 1 µM, first compound 0.0316 µM
# [8] = second compound 1 µM, first compound 0.316 µM
# [9] = second compound 3.16 µM, first compound 0.0316 µM
# [10] = second compound 3.16 µM, first compound 0.316 µM
# [11] = second compound 10 µM, first compound 0.0316 µM
# [12] = second compound 10 µM, first compound 0.316 µM
# [13] = second compound 0.0316 µM, first compound 0.1 µM
# [14] = second compound 0.0316 µM, first compound 1 µM
# [15] = second compound 0.0316 µM, first compound 3.16 µM
# [16] = second compound 0.0316 µM, first compound 10 µM
# [17] = second compound 0.1 µM, first compound 0.1 µM
# [18] = second compound 0.1 µM, first compound 1 µM
# [19] = second compound 0.1 µM, first compound 3.16 µM
# [20] = second compound 0.1 µM, first compound 10 µM
# [21] = second compound 0.316 µM, first compound 0.1 µM
# [22] = second compound 0.316 µM, first compound 1 µM
# [23] = second compound 0.316 µM, first compound 3.16 µM
# [24] = second compound 0.316 µM, first compound 10 µM
# [25] = second compound 1 µM, first compound 0.1 µM
# [26] = second compound 1 µM, first compound 1 µM
# [27] = second compound 1 µM, first compound 3.16 µM
# [28] = second compound 1 µM, first compound 10 µM
# [29] = second compound 3.16 µM, first compound 0.1 µM
# [30] = second compound 3.16 µM, first compound 1 µM
# [31] = second compound 3.16 µM, first compound 3.16 µM
# [32] = second compound 3.16 µM, first compound 10 µM
# [33] = second compound 10 µM, first compound 0.1 µM
# [34] = second compound 10 µM, first compound 1 µM
# [35] = second compound 10 µM, first compound 3.16 µM
# [36] = second compound 10 µM, first compound 10 µM
# 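Also: spheroids exposed to the agents for seven days.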
# 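For viability, T/C in this document: percent of DMSO vehicle control viability which is 100%.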
smiles,measurement,setting,value
Cc1[nH]c2ccccc2c1CCNCc1ccc(/C=C/C(=O)NO)cc1 + Cc1cnc(CNC(=O)c2c(=O)c3ccc(N4CCCN(C)CC4)nc3n3c2sc2ccccc23)cn1,IC50,second compound 0.0316 µM,0.013 µM
same,IC50,second compound 0.1 µM,0.00349 µM
same,IC50,second compound 0.316 µM,< 0.000999 µM
same,IC50,second compound 1 µM,< 0.000999 µM
same,IC50,second compound 3.16 µM,< 0.000999 µM
same,IC50,second compound 10 µM,< 0.000999 µM
same,"viability, T/C","second compound 0.0316 µM, first compound 0.000999 µM",65.8%
same,"viability, T/C","second compound 0.0316 µM, first compound 0.00316 µM",59.5%
same,"viability, T/C","second compound 0.0316 µM, first compound 0.00999 µM",52.6%
same,"viability, T/C",[1],41.3%
same,"viability, T/C","second compound 0.0316 µM, first compound 0.0999 µM",32%
same,"viability, T/C",[2],16.2%
same,"viability, T/C","second compound 0.1 µM, first compound 0.000999 µM",56.1%
same,"viability, T/C","second compound 0.1 µM, first compound 0.00316 µM",48%
same,"viability, T/C","second compound 0.1 µM, first compound 0.00999 µM",45.2%
same,"viability, T/C",[3],38%
same,"viability, T/C","second compound 0.1 µM, first compound 0.0999 µM",25.4%
same,"viability, T/C",[4],15.1%
same,"viability, T/C","second compound 0.316 µM, first compound 0.000999 µM",50.4%
same,"viability, T/C","second compound 0.316 µM, first compound 0.00316 µM",40.7%
same,"viability, T/C","second compound 0.316 µM, first compound 0.00999 µM",37.5%
same,"viability, T/C",[5],30.9%
same,"viability, T/C","second compound 0.316 µM, first compound 0.0999 µM",21.7%
same,"viability, T/C",[6],9.86%
same,"viability, T/C","second compound 1 µM, first compound 0.000999 µM",44.3%
same,"viability, T/C","second compound 1 µM, first compound 0.00316 µM",38.2%
same,"viability, T/C","second compound 1 µM, first compound 0.00999 µM",34.8%
same,"viability, T/C",[7],33.1%
same,"viability, T/C","second compound 1 µM, first compound 0.0999 µM",21.4%
same,"viability, T/C",[8],8.16%
same,"viability, T/C","second compound 3.16 µM, first compound 0.000999 µM",38.3%
same,"viability, T/C","second compound 3.16 µM, first compound 0.00316 µM",32.1%
same,"viability, T/C","second compound 3.16 µM, first compound 0.00999 µM",31.9%
same,"viability, T/C",[9],27.7%
same,"viability, T/C","second compound 3.16 µM, first compound 0.0999 µM",16.6%
same,"viability, T/C",[10],0.13%
same,"viability, T/C","second compound 10 µM, first compound 0.000999 µM",27.3%
same,"viability, T/C","second compound 10 µM, first compound 0.00316 µM",31.2%
same,"viability, T/C","second compound 10 µM, first compound 0.00999 µM",27.7%
same,"viability, T/C",[11],24.8%
same,"viability, T/C","second compound 10 µM, first compound 0.0999 µM",16.5%
same,"viability, T/C",[12],0.21%
C=CC(=O)N1CCN(c2nc(=O)n(-c3c(C)ccnc3C(C)C)c3nc(-c4c(O)cccc4F)c(F)cc23)C(C)C1 (stereo not drawn) + Cc1[nH]c2ccc(F)cc2c1-c1nc2c3cccnc3c3ncccc3c2[nH]1,IC50,second compound 0.0316 µM,> 10 µM
same,IC50,second compound 0.1 µM,> 10 µM
same,IC50,second compound 0.316 µM,> 10 µM
same,IC50,second compound 1 µM,> 10 µM
same,IC50,second compound 3.16 µM,> 10 µM
same,IC50,second compound 10 µM,> 10 µM
same,"viability, T/C",[1],95.3%
same,"viability, T/C",[13],100%
same,"viability, T/C",[2],93.9%
same,"viability, T/C",[14],104%
same,"viability, T/C",[15],104%
same,"viability, T/C",[16],77.9%
same,"viability, T/C",[3],106%
same,"viability, T/C",[17],105%
same,"viability, T/C",[4],102%
same,"viability, T/C",[18],100%
same,"viability, T/C",[19],105%
same,"viability, T/C",[20],88.9%
same,"viability, T/C",[5],97.3%
same,"viability, T/C",[21],98.1%
same,"viability, T/C",[6],103%
same,"viability, T/C",[22],97.6%
same,"viability, T/C",[23],105%
same,"viability, T/C",[24],83.3%
same,"viability, T/C",[7],91.5%
same,"viability, T/C",[25],92.4%
same,"viability, T/C",[8],94.7%
same,"viability, T/C",[26],98.1%
same,"viability, T/C",[27],90.1%
same,"viability, T/C",[28],77.9%
same,"viability, T/C",[9],72.5%
same,"viability, T/C",[29],74.9%
same,"viability, T/C",[10],75.8%
same,"viability, T/C",[30],76.3%
same,"viability, T/C",[31],74.2%
same,"viability, T/C",[32],62.6%
same,"viability, T/C",[11],67%
same,"viability, T/C",[33],71.8%
same,"viability, T/C",[12],68.2%
same,"viability, T/C",[34],78.7%
same,"viability, T/C",[35],71.6%
same,"viability, T/C",[36],59%
COc1ncnc(C2CC2)c1-c1ncc2cnn(Cc3ccc(-c4nc(C(F)(F)F)cn4C(C)C)cc3)c2n1 + Cc1[nH]c2ccc(F)cc2c1-c1nc2c3cccnc3c3ncccc3c2[nH]1,IC50,second compound 0.0316 µM,> 10 µM
same,IC50,second compound 0.1 µM,> 10 µM
same,IC50,second compound 0.316 µM,> 10 µM
same,IC50,second compound 1 µM,> 10 µM
same,IC50,second compound 3.16 µM,> 10 µM
same,IC50,second compound 10 µM,> 10 µM
same,"viability, T/C",[1],95.6%
same,"viability, T/C",[13],91.5%
same,"viability, T/C",[2],100%
same,"viability, T/C",[14],93.2%
same,"viability, T/C",[15],91.4%
same,"viability, T/C",[16],89.8%
same,"viability, T/C",[3],98.2%
same,"viability, T/C",[17],102%
same,"viability, T/C",[4],89.5%
same,"viability, T/C",[18],96.7%
same,"viability, T/C",[19],92.1%
same,"viability, T/C",[20],87.7%
same,"viability, T/C",[5],93.4%
same,"viability, T/C",[21],87.9%
same,"viability, T/C",[6],87.3%
same,"viability, T/C",[22],82.3%
same,"viability, T/C",[23],99.7%
same,"viability, T/C",[24],91.8%
same,"viability, T/C",[7],86.7%
same,"viability, T/C",[25],90%
same,"viability, T/C",[8],93.2%
same,"viability, T/C",[26],81.3%
same,"viability, T/C",[27],93.5%
same,"viability, T/C",[28],87.1%
same,"viability, T/C",[9],70%
same,"viability, T/C",[29],78.4%
same,"viability, T/C",[10],64.1%
same,"viability, T/C",[30],62.7%
same,"viability, T/C",[31],73.2%
same,"viability, T/C",[32],67%
same,"viability, T/C",[11],59.8%
same,"viability, T/C",[33],63.1%
same,"viability, T/C",[12],56%
same,"viability, T/C",[34],60.5%
same,"viability, T/C",[35],62.3%
same,"viability, T/C",[36],60.3%
CC1COCCN1c1cc(C2(S(C)(=N)=O)CC2)nc(-c2ccnc3[nH]ccc23)n1 (stereo not drawn) + CN(C)c1ccc(Nc2c3ccc(NC(=O)CCN4CCCC4)cc3nc3cc(NC(=O)CCN4CCCC4)ccc23)cc1,IC50,second compound 0.0316 µM,3.49 µM
same,IC50,second compound 0.1 µM,4.43 µM
same,IC50,second compound 0.316 µM,3.81 µM
same,IC50,second compound 1 µM,2.78 µM
same,IC50,second compound 3.16 µM,3.05 µM
same,IC50,second compound 10 µM,< 0.0316 µM
same,"viability, T/C",[1],101%
same,"viability, T/C",[13],103%
same,"viability, T/C",[2],103%
same,"viability, T/C",[14],74.2%
same,"viability, T/C",[15],54.6%
same,"viability, T/C",[16],34.9%
same,"viability, T/C",[3],115%
same,"viability, T/C",[17],96.1%
same,"viability, T/C",[4],97.1%
same,"viability, T/C",[18],84.6%
same,"viability, T/C",[19],53.1%
same,"viability, T/C",[20],34.5%
same,"viability, T/C",[5],109%
same,"viability, T/C",[21],94.7%
same,"viability, T/C",[6],101%
same,"viability, T/C",[22],82.9%
same,"viability, T/C",[23],52.8%
same,"viability, T/C",[24],35.4%
same,"viability, T/C",[7],98%
same,"viability, T/C",[25],87.8%
same,"viability, T/C",[8],95.4%
same,"viability, T/C",[26],70.1%
same,"viability, T/C",[27],49%
same,"viability, T/C",[28],33.7%
same,"viability, T/C",[9],86.3%
same,"viability, T/C",[29],85.1%
same,"viability, T/C",[10],84.4%
same,"viability, T/C",[30],66.9%
same,"viability, T/C",[31],50.7%
same,"viability, T/C",[32],32.8%
same,"viability, T/C",[11],37%
same,"viability, T/C",[33],38.2%
same,"viability, T/C",[12],36%
same,"viability, T/C",[34],32.6%
same,"viability, T/C",[35],28%
same,"viability, T/C",[36],19.9%
